The target in one experiment is α4β7 integrin (Homo sapiens (Human), UniProt P13612+P26010). Nature of the experiment: Integrin Adhesion Assay: Protocol 1 (MAdCAM-coated plate, RPMI-8866 cells, CellTiter GLO readout). The experiment is classed as cell-based. As to the method:
α4β7 and α4β1 inhibition was evaluated in vitro using at least one of the following procedures:
Integrin Adhesion Assay: Protocol 1
MAdCAM (R&D Systems, 0.1 ug) was diluted in 50 μL PBS, added to each well of an opaque ELISA plate (Thermo), and incubated overnight at 4° C. Coated plates were washed once with PBS and then blocked with 200 μL of assay buffer (10 mM HEPES, 150 mM NaCl, 1 mM MnCl2, 0.1 mM CaCl2), 1% BSA) for 1 hour at 37° C. and 5% CO2. After incubation, buffer was aspirated from the plates and 50 μL of fresh assay buffer is added. Compounds were added by a compouns dispenser (Tecan) and DMSO concentration was normalized to 1% across each plate. 50 μL of RPMI-8866 cells (2×10^6 per mL) were added to each well and the plates were incubated for 1 hour at 37° C. and 5% CO2. After incubation, plates were allowed to cool to RT for 10 minutes before being washed four times in assay buffer by an automated plate washer (BioTek). After washing, 100 μL of a 1:1 mixture of assay buffer and CellTiter GLO 2.0 reagent (Promega) were added to each well. Plates were mixed for 2 minutes at 1000 rpm and then allowed to incubate an additional 10 minutes before reading out luminescence on a Tecan Spark plate reader. Raw data was converted to percent inhibition based on DMSO only and control compound wells, and curves were analyzed by 4-parameter fit within Dotmatics software.

The next experiment has as its target α4β1 integrin (Homo sapiens (Human), UniProt P05556+P13612). The experiment in a line: Integrin Adhesion Assay: Protocol 5 (VCAM-coated plate, RPMI-8866 cells with stable LOF mutation of the ITGB7 gene). Format: cell-based. A digest of the protocol: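 RPMI-8866 B cells with CRISPR/Cas9 ITGB7 knockout (clonal, verified by flow cytometry) adhered to VCAM-coated wells for 1 h at 37° C in HEPES/NaCl buffer with 1 mM MnCl2, 0.1 mM CaCl2, 1% BSA, 1% DMSO. Bound cells quantified by CellTiter-Glo luminescence after washing; % inhibition versus DMSO and control, 4-parameter fit.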

[1] abbreviates: RPMI-8866 cells with stable LOF mutation of the ITGB7 gene, read-out: Mean IC50 α4β1 KO^b.
Where [2] appears, read: integrin adhesion assay, determined by at least one of the assays described (protocol not specified).

Each structure is given as a SMILES string. pIC50: −log10 of the molar value. Where two headings read alike, the source gives them in different places.

Sequence of α4β7 integrin (P13612 34-1032): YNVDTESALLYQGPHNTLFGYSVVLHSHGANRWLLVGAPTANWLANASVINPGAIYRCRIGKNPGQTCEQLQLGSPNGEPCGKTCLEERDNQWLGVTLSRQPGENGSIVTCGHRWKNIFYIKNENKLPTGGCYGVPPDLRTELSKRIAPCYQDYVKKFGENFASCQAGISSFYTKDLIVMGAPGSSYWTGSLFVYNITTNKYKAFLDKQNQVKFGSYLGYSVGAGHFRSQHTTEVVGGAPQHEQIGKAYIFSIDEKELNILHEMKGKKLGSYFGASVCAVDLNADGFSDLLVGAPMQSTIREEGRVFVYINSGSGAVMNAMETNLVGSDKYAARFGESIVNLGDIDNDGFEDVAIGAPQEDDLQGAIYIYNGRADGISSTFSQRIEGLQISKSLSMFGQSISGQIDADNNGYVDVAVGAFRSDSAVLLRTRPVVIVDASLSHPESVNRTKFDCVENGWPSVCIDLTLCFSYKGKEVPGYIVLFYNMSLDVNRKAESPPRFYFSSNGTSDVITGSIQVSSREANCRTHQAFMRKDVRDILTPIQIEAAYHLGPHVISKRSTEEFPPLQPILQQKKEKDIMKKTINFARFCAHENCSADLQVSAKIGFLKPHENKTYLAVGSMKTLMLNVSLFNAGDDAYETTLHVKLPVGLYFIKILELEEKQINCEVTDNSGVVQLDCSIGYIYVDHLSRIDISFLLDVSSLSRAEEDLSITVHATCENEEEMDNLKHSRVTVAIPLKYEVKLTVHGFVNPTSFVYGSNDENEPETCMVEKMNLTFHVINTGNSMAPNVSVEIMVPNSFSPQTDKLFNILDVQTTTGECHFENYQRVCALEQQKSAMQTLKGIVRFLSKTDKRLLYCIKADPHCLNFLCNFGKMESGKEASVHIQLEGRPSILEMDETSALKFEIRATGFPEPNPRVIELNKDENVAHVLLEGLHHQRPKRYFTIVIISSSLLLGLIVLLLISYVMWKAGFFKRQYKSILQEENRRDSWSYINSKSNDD
Sequence of α4β7 integrin (P26010 20-798): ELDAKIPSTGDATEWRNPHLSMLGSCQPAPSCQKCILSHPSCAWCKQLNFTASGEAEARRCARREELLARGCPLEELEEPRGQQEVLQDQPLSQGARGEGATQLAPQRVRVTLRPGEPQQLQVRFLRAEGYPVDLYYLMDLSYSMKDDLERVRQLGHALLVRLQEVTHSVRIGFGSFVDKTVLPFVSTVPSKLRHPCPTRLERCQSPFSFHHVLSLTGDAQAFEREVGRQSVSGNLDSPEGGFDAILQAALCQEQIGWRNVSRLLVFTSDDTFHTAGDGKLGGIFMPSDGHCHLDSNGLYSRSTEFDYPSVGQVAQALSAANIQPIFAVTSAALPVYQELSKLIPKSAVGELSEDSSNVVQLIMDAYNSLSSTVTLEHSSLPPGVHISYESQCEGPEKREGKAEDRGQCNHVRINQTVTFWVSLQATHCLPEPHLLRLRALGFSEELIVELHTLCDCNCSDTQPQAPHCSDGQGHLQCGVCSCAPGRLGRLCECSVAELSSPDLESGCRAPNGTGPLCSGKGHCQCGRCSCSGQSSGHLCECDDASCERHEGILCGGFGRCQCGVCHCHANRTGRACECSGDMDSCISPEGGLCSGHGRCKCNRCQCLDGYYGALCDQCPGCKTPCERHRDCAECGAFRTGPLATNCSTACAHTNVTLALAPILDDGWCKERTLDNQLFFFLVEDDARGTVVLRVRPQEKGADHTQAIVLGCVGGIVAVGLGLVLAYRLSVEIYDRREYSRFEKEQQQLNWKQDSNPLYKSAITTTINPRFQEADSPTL
Sequence of α4β1 integrin (P13612 34-1032): as the sequence (P13612 34-1032) above
Sequence of α4β1 integrin (P05556 21-798): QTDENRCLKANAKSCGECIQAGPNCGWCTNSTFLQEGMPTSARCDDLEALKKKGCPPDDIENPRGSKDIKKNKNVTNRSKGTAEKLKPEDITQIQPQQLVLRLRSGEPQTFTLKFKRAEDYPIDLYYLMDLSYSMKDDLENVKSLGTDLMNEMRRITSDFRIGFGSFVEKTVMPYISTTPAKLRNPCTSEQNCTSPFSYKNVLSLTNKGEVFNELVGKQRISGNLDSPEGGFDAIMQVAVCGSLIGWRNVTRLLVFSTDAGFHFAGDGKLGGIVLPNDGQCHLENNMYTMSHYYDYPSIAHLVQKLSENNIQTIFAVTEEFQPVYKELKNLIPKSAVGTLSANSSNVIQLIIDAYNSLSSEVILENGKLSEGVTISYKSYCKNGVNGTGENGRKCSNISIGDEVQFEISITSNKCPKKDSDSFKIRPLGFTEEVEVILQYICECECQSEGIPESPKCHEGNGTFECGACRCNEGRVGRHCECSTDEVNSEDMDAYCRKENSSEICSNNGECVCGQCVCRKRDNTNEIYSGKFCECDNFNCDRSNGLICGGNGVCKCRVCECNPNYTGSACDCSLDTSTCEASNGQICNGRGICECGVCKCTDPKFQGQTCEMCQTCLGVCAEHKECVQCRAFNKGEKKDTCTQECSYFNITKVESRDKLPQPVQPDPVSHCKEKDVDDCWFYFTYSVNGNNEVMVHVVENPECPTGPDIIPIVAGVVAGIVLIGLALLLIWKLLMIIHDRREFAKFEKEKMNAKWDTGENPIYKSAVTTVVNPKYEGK

Consider `Cn1c(C(F)(F)F)cc(C(F)(F)F)c(-c2cccc3c(C[C@H](NC(=O)[C@]4(C)CC[C@@H](N5CCOC[C@@H]5C(F)(F)F)CC4)C(=O)O)cccc23)c1=O` [Compound 407], for which the figures for the pIC50 against α4β7 integrin and on α4β1 integrin (setting [1]) were 7.00 to 8.00 and less than 6.00, respectively.
As to `CN(C)CCc1ccc2c(c1)c(C(F)(F)F)c(-c1cccc3c(C[C@H](NC(=O)c4c(F)cccc4F)C(=O)O)cccc13)c(=O)n2C` [Compound 705], the pIC50 against α4β7 integrin (protocol not given) was greater than 8.00; on α4β1 integrin (Protocol 5, RPMI-8866 cells with LOF mutation of ITGB7, VCAM, read-out: Mean IC50 α4β1 KO), 6.00 to 7.00.
Regarding `Cn1ccc(C(F)(F)F)c(-c2cccc3c(C[C@H](NC(=O)c4c(F)cc(N5CCOC(CN6CCCC6)C5)cc4F)C(=O)O)cccc23)c1=O` (some centres unmarked) [Compound 440], the pIC50 at α4β7 integrin is 7.00 to 8.00; at α4β1 integrin (setting [1]), less than 6.00.
Turning to `Cn1c(=O)c(-c2cccc3c(C[C@H](NC(=O)[C@]4(C)CC[C@H](N5CCC(F)(F)CC5)CC4)C(=O)O)cccc23)c(C(F)(F)F)c2ccccc21` [Compound 402], the pIC50 against α4β7 integrin and at α4β1 integrin (setting [1]) was less than 6.00 throughout.
`Cn1c(=O)c(-c2cccc3c(C[C@H](NC(=O)c4c(F)cccc4CN4CCCC4)C(=O)O)cccc23)c(C(F)(F)F)c2ccccc21` [Compound 351]: the pIC50 was greater than 8.00 against α4β7 integrin and less than 6.00 on α4β1 integrin (setting [1]).
The matching figures for `Cn1c(=O)c(-c2cccc3c(C[C@H](NC(=O)c4c(F)cc(N5CC(C)(C)OC(C)(C)C5)cc4F)C(=O)O)cccc23)c(C(F)(F)F)c2ccccc21` [Compound 331]: 7.00 to 8.00 and less than 6.00.
With `CC[C@@H](Nc1cc(F)c(C(=O)N[C@@H](Cc2cccc3c(-c4c(C(F)(F)F)c5ccccc5n(C)c4=O)cccc23)C(=O)O)c(F)c1)C(F)(F)F` [Compound 321], the pIC50 against α4β7 integrin was 7.00 to 8.00; on α4β1 integrin (setting [1]), less than 6.00.
For `Cc1n[nH]c(C)c1-c1cc(F)c(C(=O)N[C@@H](Cc2cccc3c(-c4c(C(F)(F)F)c5ccccc5n(C)c4=O)cccc23)C(=O)O)c(F)c1` [Compound 308], the pIC50 on α4β7 integrin was 7.00 to 8.00; on α4β1 integrin (setting [1]), less than 6.00.
In the same order, the values of `CN(c1cc(F)c(C(=O)N[C@@H](Cc2cccc3c(-c4c(C(F)(F)F)c5ccccc5n(C)c4=O)cccc23)C(=O)O)c(F)c1)C1COC1` [Compound 364] are 6.00 to 7.00 and less than 6.00.
In the same order, the values of `CN(C)Cc1ccc2c(-c3cccc4c(C[C@H](NC(=O)c5c(F)cc(N6CCOC[C@@H]6C(F)(F)F)cc5CN5CCOCC5)C(=O)O)cccc34)nccc2c1` [Compound 557] are greater than 8.00 and less than 6.00.
Take `CO[C@@H](C)c1cc(F)c(C(=O)N[C@@H](Cc2cccc3c(-c4c(C(F)(F)F)c5ccccc5n(C)c4=O)cccc23)C(=O)O)c(F)c1` [Compound 415]: the figures for the pIC50 at α4β7 integrin and at α4β1 integrin (setting [1]) were 6.00 to 7.00 and less than 6.00, respectively.
Consider `Cn1c(=O)c(-c2cccc3c(C[C@H](NC(=O)c4c(F)cc(NC5COC5)cc4F)C(=O)O)cccc23)c(C(F)(F)F)c2ccccc21` [Compound 378], for which the figures for the pIC50 against α4β7 integrin and on α4β1 integrin (setting [1]) were 7.00 to 8.00 and less than 6.00, respectively.
In the same order, the values of `Cn1c(=O)c(-c2cccc3c(C[C@H](NC(=O)c4c(F)cc5cnn(CC(F)(F)F)c5c4F)C(=O)O)cccc23)c(C(F)(F)F)c2ccccc21` [Compound 322] are 7.00 to 8.00 and 6.00 to 7.00.
In the same order, the values of `COCCN(CC(F)(F)F)c1cc(F)c(C(=O)N[C@@H](Cc2cccc3c(-c4c(C(F)(F)F)c5ccccc5n(C)c4=O)cccc23)C(=O)O)c(F)c1` [Compound 385] are 7.00 to 8.00 and less than 6.00.
`CN(C)Cc1cccc2c(-c3cccc4c(C[C@H](NC(=O)[C@]5(C)CC[C@H](N6CCC(F)(F)CC6)CC5)C(=O)O)cccc34)nccc12` [Compound 424]: the pIC50 was greater than 8.00 on α4β7 integrin and less than 6.00 at α4β1 integrin (setting [1]).
For `Cn1c(=O)c(-c2cccc3c(C[C@H](NC(=O)[C@]4(C)CC[C@H](N5CCOC[C@@H]5C(F)(F)F)CC4)C(=O)O)cccc23)c(C(F)(F)F)c2ccccc21` (single isomer, unassigned) [Compound 347], the pIC50 on α4β7 integrin was 7.00 to 8.00; on α4β1 integrin (setting [1]), less than 6.00.
In the same order, the values of `Cn1ccc(C(F)(F)F)c(-c2cccc3c(C[C@H](NC(=O)c4c(F)cc(N5CCOc6ccccc65)cc4F)C(=O)O)cccc23)c1=O` [Compound 439] are 7.00 to 8.00 and less than 6.00.
The matching figures for `CN(C)C1CCN(Cc2cc(N3CCOC[C@@H]3C(F)(F)F)cc(F)c2C(=O)N[C@@H](Cc2cccc3c(-c4cccc5ccncc45)cccc23)C(=O)O)CC1` [Compound 300]: greater than 8.00 and less than 6.00.
Take `O=C(N[C@@H](Cc1cccc2c(-c3cccc4ccncc34)cccc12)C(=O)O)c1c(F)cccc1CN1CCC(F)(F)CC1` [Compound 358]: the pIC50 against α4β7 integrin was 7.00 to 8.00; at α4β1 integrin (setting [1]), less than 6.00.
The matching figures for `CN(C)c1ccc2c(-c3cccc4c(C[C@H](NC(=O)c5c(F)cc(N6CCOC[C@@H]6C(F)(F)F)cc5CN5CCOCC5)C(=O)O)cccc34)nccc2c1` [Compound 299]: greater than 8.00 and less than 6.00.
On α4β7 integrin, `CN1CCC(c2cc(F)c(C(=O)N[C@@H](Cc3cccc4c(-c5c(C(F)(F)F)c6ccccc6n(C)c5=O)cccc34)C(=O)O)c(F)c2)CC1` [Compound 383] showed a pIC50 of 6.00 to 7.00.
Still for that read-out and setting: the figure for `Cn1c(=O)c(-c2cccc3c(C[C@H](NC(=O)C45CC(N6CCC(F)(F)CC6)(C4)C5)C(=O)O)cccc23)c(C(F)(F)F)c2ccccc21` [Compound 391] is less than 6.00; for `Cn1c(=O)c(-c2cccc3c(C[C@H](NC(=O)c4c(F)cc(N5CCC(F)(F)CC5)cc4F)C(=O)O)cccc23)c(C(F)(F)F)c2ccccc21` [Compound 379] it is 6.00 to 7.00.
On α4β7 integrin (setting [2]), `Cn1ccc(=O)n(-c2cccc3c(C[C@H](NC(=O)C4(C)CCCN(CC(F)(F)F)C4)C(=O)O)cccc23)c1=O` (some centres unmarked) [Compound 121] gave a pIC50 of less than 6.00.
Regarding `Cn1c(=O)c(-c2cccc3c(CC(Nc4nccc5cccc(F)c45)C(=O)O)cccc23)c(C(F)(F)F)c2ccccc21` (centres unmarked) [Compound 437], the pIC50 on α4β7 integrin is less than 6.00.
As for `Cn1ccc(=O)n(-c2cccc3c(C[C@H](NC(=O)[C@@H]4CCCN4S(=O)(=O)c4ccccc4)C(=O)O)cccc23)c1=O` [Compound 109], the pIC50 against α4β7 integrin (setting [2]) is 6.00 to 7.00.
In the case of `Cc1cccc(C)c1-c1nc(C(=O)N[C@@H](Cc2cccc3c(-c4c(C(F)(F)F)c5ccccc5n(C)c4=O)cccc23)C(=O)O)c(C)n1C` [Compound 349], the pIC50 at α4β7 integrin is less than 6.00.
The same measure, in the same setting: the figure for `Cn1c(=O)c(-c2cccc3c(C[C@H](NC(=O)c4cc5ccc(N6CC(F)C6)cn5n4)C(=O)O)cccc23)c(C(F)(F)F)c2ccccc21` [Compound 429] is less than 6.00; for `CN1CC(C)(Cc2cc(F)c(C(=O)N[C@@H](Cc3cccc4c(-c5c(C(F)(F)F)c6ccccc6n(C)c5=O)cccc34)C(=O)O)c(F)c2)C1` [Compound 369] it is less than 6.00.
On α4β7 integrin (setting [2]), `Cn1ccc(=O)n(-c2cccc3c(C[C@H](NC(=O)C4(C(F)(F)F)CCCCC4)C(=O)O)cccc23)c1=O` [Compound 13] gave a pIC50 of 7.00 to 8.00.
For `Cn1ccc(C(F)(F)F)c(-c2cccc3c(C[C@H](NC(=O)c4c(F)cc(N5CC(F)(F)OC(F)(F)C5)cc4F)C(=O)O)cccc23)c1=O` [Compound 441], the pIC50 at α4β7 integrin is 7.00 to 8.00.
Still for that read-out and setting: the figure for `Cn1c(=O)c(-c2cccc3c(C[C@H](NC(=O)c4c(F)cc(N5CCOC6(CCC6)C5)cc4F)C(=O)O)cccc23)c(C(F)(F)F)c2ccccc21` [Compound 340] is 6.00 to 7.00.
Same read-out and setting: the figure for `CO[C@@H]1C[C@@H](c2cc(F)c(C(=O)N[C@@H](Cc3cccc4c(-c5c(C(F)(F)F)c6ccccc6n(C)c5=O)cccc34)C(=O)O)c(F)c2)N(C)C1` [Compound 464] is 6.00 to 7.00; for `COc1ccn2nc(C(=O)N[C@@H](Cc3cccc4c(-c5c(C(F)(F)F)c6ccccc6n(C)c5=O)cccc34)C(=O)O)cc2c1` [Compound 427] it is less than 6.00.
The same measure, in the same setting: the figure for `Cn1c(=O)c(-c2cccc3c(C[C@H](NC(=O)c4c(F)cc(N5CCOCC5c5ccc(C(F)(F)F)cc5)cc4F)C(=O)O)cccc23)c(C(F)(F)F)c2ccccc21` (some centres unmarked) [Compound 344] is less than 6.00; for `Cc1cccc(C)c1-c1cc(F)c(F)c(C(=O)N[C@@H](Cc2cccc3c(-c4c(C(F)(F)F)c5ccccc5n(C)c4=O)cccc23)C(=O)O)c1` [Compound 306] it is less than 6.00; for `CC(C)[C@H]1COCCN1c1cc(F)c(C(=O)N[C@@H](Cc2cccc3c(-c4c(C(F)(F)F)c5ccccc5n(C)c4=O)cccc23)C(=O)O)c(F)c1` [Compound 337] it is 6.00 to 7.00.
With `Cn1ccc(C(F)(F)F)c(-c2ccnc3c(C[C@H](NC(=O)c4c(F)cccc4F)C(=O)O)cccc23)c1=O` [Compound 212], the negative-log IC50 (pIC50) against α4β7 integrin (setting [2]) was 6.00 to 7.00.
Molecule `CC1(C)NC(=O)c2c(-c3cccc4c(C[C@H](NC(=O)c5c(F)cccc5F)C(=O)O)cccc34)cccc21` [Compound 5] showed a pIC50 against α4β7 integrin (setting [2]) of 7.00 to 8.00.

The values above are taken from patent US20250313535A1, “ALPHA 4 BETA 7 INTEGRIN MODULATORS AND USES THEREOF” (DICE MOLECULES SV, INC., priority 2022, published 2025).
